In patent publication US6902913B2, “Recombinant narbonolide polyketide synthase” (priority 1997, dated 2005):

How the values were obtained:
[1] = biological target: T1, 6-hydroxylase encoded by eryF (Saccharopolyspora erythraea, UniProt Q00441); experiment: in vitro 6-hydroxylation by the 6-hydroxylase encoded by eryF; format: biochemical; settings: 100 pmol hydroxylase, 10 nmol substrate, 90 minutes at 30° C., based on relative total ion counts
T1 construct: made in house; host or cells: E. coli
T1 sequence (Q00441 1-404): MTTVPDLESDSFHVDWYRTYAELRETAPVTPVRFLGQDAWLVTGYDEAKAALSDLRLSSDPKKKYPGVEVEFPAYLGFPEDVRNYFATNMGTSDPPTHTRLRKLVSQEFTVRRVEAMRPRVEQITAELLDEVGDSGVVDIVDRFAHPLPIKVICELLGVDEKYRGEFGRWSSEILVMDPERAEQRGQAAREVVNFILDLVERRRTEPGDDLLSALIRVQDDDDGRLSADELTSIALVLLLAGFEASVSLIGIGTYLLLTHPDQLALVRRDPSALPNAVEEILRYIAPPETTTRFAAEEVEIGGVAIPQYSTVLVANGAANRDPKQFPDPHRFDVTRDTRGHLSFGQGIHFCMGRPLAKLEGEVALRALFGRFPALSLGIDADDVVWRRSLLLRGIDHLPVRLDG
Procedure: The 6-hydroxylase encoded by eryF was expressed in E. coli, and partially purified. The hydroxylase (100 pmol in 10 μL) was added to a reaction mixture (100 μl total volume) containing 50 mM Tris/HCl (pH 7.5), 20 μM spinach ferredoxin, 0.025 Unit of spinach ferredoxin:NADP^+ oxidoreductase, 0.8 Unit of glucose-6-phosphate dehydrogenase, 1.4 mM NADP^+, 7.6 mM glucose-6-phosphate, and 10 nmol 6-deoxyerythronolide B. The reaction was allowed to proceed for 90 minutes at 30° C. Half of the reaction mixture was loaded onto an HPLC, and the effluent was analyzed by mass spectrometry. The production of erythronolide B as evidenced by a new peak eluting earlier in the gradient and showing [M+H]^+=401. Conversion was estimated at 50% based on relative total ion counts.

picK protein = biological target: T2, picK protein (Streptomyces venezuelae, UniProt O87605, G416S); experiment: hydroxylase activity of the picK protein (conversion of narbomycin to picromycin); format: biochemical; settings: crude supernatant of E. coli BL21-DE3/pKOS023-61, 20 nmol narbomycin, 105 minutes at 30° C., by ELSD peak area
T2 construct: made in house; host or cells: E. coli BL21-DE3
Procedure: Plasmid pKOS023-61 was transformed into E. coli BL21-DE3. Successful transformants were grown in LB-containing carbenicillin (100 μg/ml) at 37° C. to an OD600 of 0.6. Isopropyl-beta-D-thiogalactopyranoside (IPTG) was added to a final concentration of 1 mM, and the cells were grown for an additional 3 hours before harvesting. The cells were collected by centrifugation and frozen at −80° C. A control culture of BL21-DE3 containing the vector plasmid pET21c (Invitrogen) was prepared in parallel.
The frozen BL21-DE3/pKOS023-61 cells were thawed, suspended in […] of cold cell disruption buffer (5 mM imidazole, 500 mM NaCl, 20 mM Tris/HCl, pH 8.0) and sonicated to facilitate lysis. Cellular debris and supernatant were separated by centrifugation and subjected to SDS-PAGE on 10-15% gradient gels, with Coomassie Blue staining, using a Pharmacia Phast Gel Electrophoresis system. The soluble crude extract from BL21-DE3/pKOS023-61 contained a Coomassie stained band of Mr˜46 kDa, which was absent in the control strain BL21-DE3/pET21c.
The hydroxylase activity of the picK protein was assayed as follows. […] Half of the reaction mixture was loaded onto an HPLC, and the effluent was analyzed by evaporative light scattering (ELSD) and mass spectrometry. […]

For `CC[C@H]1OC(=O)[C@H](C)[C@@H](O)[C@H](C)[C@@H](O)[C@@H](C)C[C@@H](C)C(=O)[C@H](C)[C@@H](O)[C@H]1C` [6-deoxyerythronolide B], the “conversion of 6-deoxyerythronolide B to erythronolide B” value [1] was roughly 50%.

For `CC[C@H]1OC(=O)[C@H](C)C(=O)[C@H](C)[C@@H](O[C@@H]2O[C@H](C)C[C@H](N(C)C)[C@H]2O)[C@@H](C)C[C@@H](C)C(=O)/C=C/[C@H]1C` [narbomycin], the “conversion of narbomycin to picromycin” value (picK protein) was “greater than 90%”.
